Assays:
RS1-1 and variants = test: Luciferase induction assay, RS1-1 and variants in HEK-293T cells; format: cell-based, human; details: RS1-1, RS1-2, RS1-3, RS1-4, RS1-7, and RS1-9; FIG. 9A; 18 hours
Description: (§1) HEK-293T cells were cultured in DMEM+10% FBS, collected after trypsinization, and dispensed into 96-well plates (cell culture-treated). Each well of the plate was seeded with 1.0×10^5 cells in 100 μL culture medium. After a 1-hour incubation in the tissue culture incubator (5% CO2, 37° C.), plasmid DNA was complexed with a transfection reagent, such as Lipofectamine 3000, and added to respective wells on the plate. Each well received 100 ng of plasmid DNA complexed with 0.15 μL Lipofectamine 3000. The plasmids utilized in the experiment encoded a CMV promoter upstream of the RS1-1 variant that controlled the expression of a Firefly Luciferase gene followed by a SV40 polyadenylation signal. After a 10-minute incubation at room temperature, either DMSO vehicle or a splice modulator compound at specified doses was added to the wells of the plate. Plates were then incubated for 18 hours in a tissue culture incubator. Endpoint analysis was performed by adding 100 μL of a Luciferase substrate, such as Steady-Luc Firefly Luciferase substrate, to each well of the assay plate. The liquid contents of each was transferred to a 96-well plate, mixed again for 2 min on an orbital shaker, and incubated at room temperature for 5 min. Finally, the luminescent signal from each well was measured with a plate reader.

RS1-10, HepG2 cells = test: RS1-10 performance in HepG2 cells; format: cell-based, human; details: CBA promoter, 18 hours, FIG. 10D
Description: The human SH-SY5Y neuroblastoma cell line or the human hepatic HepG2 cell line was cultured in EMEM+10% FBS, collected after trypsinization, and then dispensed into 96-well plates (cell culture-treated). Each well of the plate was seeded with 1.0×10^5 cells in 100 μL culture medium. After a 1-hour incubation in the tissue culture incubator (5% CO2, 37 degrees C.), plasmid DNA was complexed with a transfection reagent, such as Lipofectamine 3000, and added to respective wells on the plate. Each well received an equivalent of 100 ng of plasmid DNA complexed with 0.15 μL Lipofectamine 3000 (Opti-MEM I was used as diluent). Triplicate wells were used for each condition tested in the experiment. The plasmids utilized in the human SH-SY5Y neuroblastoma cell line encoded either a CBA promoter or cloned human Synapsin promoter upstream of the RS1-10 construct that controlled the expression of a Firefly Luciferase gene followed by a SV40 polyadenylation signal. The plasmids utilized in the HepG2 cells encoded a CBA promoter upstream of the RS1-10 construct that controlled the expression of a Firefly Luciferase gene followed by a SV40 polyadenylation signal.
After a 10-minute incubation at room temperature, either DMSO vehicle or TA was added to the wells of the plate. […] Finally, the luminescent signal from each well was measured with a plate reader. […]

[1] = system: RS1-10 minigene (Firefly Luciferase), HEK-293T cells; test: Luciferase induction assay, RS1-10 with splice modulator compounds in HEK-293T cells; format: cell-based; details: Homo sapiens, 18 hours, n of 3, read-out: Mean fold-induction of luciferase (relative to vehicle control)
Description: (§2) HEK-293T cells were cultured in DMEM+10% FBS, collected after trypsinization, and then dispensed into 96-well plates (cell culture-treated). Each well of the plate was seeded with 1.0×10^5 cells in 100 μL culture medium. After a 1-hour incubation in a tissue culture incubator (5% CO2, 37 degrees C.), plasmid DNA was complexed with a transfection reagent, such as Lipofectamine 3000, and added to respective wells on the plate. Each well received an equivalent of 100 ng of plasmid DNA complexed with 0.15 μL Lipofectamine. Triplicate wells were used for each condition tested in the experiment. The plasmid utilized in the experiment encoded a CMV promoter upstream of the RS I-10 variant that controlled the expression of a Firefly Luciferase gene followed by a SV40 polyadenylation signal. After a 10-minute incubation at room temperature, either DMSO vehicle or specified compound at specified dose was added to the wells of the plate. Plates were then incubated for 18 hours in a tissue culture incubator. Endpoint analysis was performed by adding 100 uL Steady-Luc Firefly Luciferase substrate to each well of the assay plate. After mixing, the liquid contents of each was transferred to a 96-well plate, mixed again for 2 min on an orbital shaker, and incubated at room temperature for 5 min. Finally, the luminescent signal from each well was measured with a with PerkinElmer Envision plate reader. The results of this assay show RS1-10 responded to the majority of the splice modulator compounds used in a dose responsive manner (FIG. 9C). Bars represent mean+/−standard deviation of 3 wells normalized to vehicle controls.

[2] = system: RS2-3 minigene (Firefly Luciferase), HEK-293T cells; test: Luciferase induction assay, RS2-3 with splice modulator compounds in HEK-293T cells; format: cell-based; details: Homo sapiens, 18 hours, n of 3, read-out: Mean fold-induction of luciferase (relative to vehicle control)
Description: as §2, with “RS2-3” for “RS I-10”, “RS2-3” for “RS1-10”, “used” for “used in a dose responsive manner”, “13C)” for “9C).”

[3] = system: RS3-13 minigene (Firefly Luciferase), HEK-293T cells; test: Luciferase induction assay, RS3-13 with splice modulator compounds in HEK-293T cells; format: cell-based; details: Homo sapiens, 18 hours, n of 3, read-out: Mean fold-induction of luciferase (relative to vehicle control)
Description: as §2, with “RS3-13” for “the RS I-10 variant”, “RS3-13” for “RS1-10”, “used” for “used in a dose responsive manner”, “14D)” for “9C).”

RS3-1 and variants = test: Luciferase induction assay, RS3-1 and variants in HEK-293T cells; format: cell-based, human; details: 18 hours
Description: as §1, with “RS3-1 construct and variants” for “RS1-1 variant”, “116B” for “a splice modulator compound”, “reader. […]” for “reader.”

RS4-1 and variants = test: Luciferase induction assay, RS4-1 and variants in HEK-293T cells; format: cell-based, human; details: 18 hours, FIGS. 15A, 15B
Description: as §1, with “of the RS4-1 construct and variants that controlled” for “of the RS1-1 variant that controlled”, “vehicle or 24 A at specified” for “vehicle or a splice modulator compound at specified”, “adding 100 uL of a” for “adding 100 μL of a”, “plate reader. […]” for “plate reader.”

Row | Structure (SMILES) | fold induction of luciferase (RS1-1 and variants) | fold-induction of luciferase (RS1-10, HepG2 cells) | fold induction at 0.1 µM ([1]; RS1-10, 100 nM) | fold induction at 1 µM ([1]; RS1-10, 1,000 nM) | fold induction at 0.1 µM ([2]; RS2-3, 100 nM) | fold induction at 1 µM ([2]; RS2-3, 1,000 nM) | fold induction at 0.1 µM ([3]; RS3-13, 100 nM) | fold induction at 1 µM ([3]; RS3-13, 1,000 nM) | fold induction of luciferase compared to vehicle, constructs vs RS3-1 (RS3-1 and variants; 100 nM (FIGS. 14A, 14B), 200 nM or 600 nM (FIG. 14C)) | fold induction of luciferase, concentration dependence (RS3-1 and variants; RS3-1 variants, 200 nM and 600 nM (FIG. 14C)) | fold-induction of luciferase (RS4-1 and variants)
1 | Cc1cn2cc(-c3ccc(-c4ccc(C5CNC5)nn4)c(O)c3)cc(F)c2n1.Cl [1 A, 2-(6-(azetidin-3-yl)pyridazin-3-yl)-5-(8-fluoro-2-methylimidazo[1,2-a]pyridin-6-yl)phenol, HCl] | increasing fold induction of luciferase with increasing concentration of splice modulator | showed fold-induction of luciferase |  |  |  |  |  |  |  |  | 
2 | Cc1cn2cc(-c3nc(=O)n4cc(N5CCN[C@@H](C)C5)cc(F)c4n3)cc(F)c2n1 [Compound 116B, (S)-9-fluoro-2-(8-fluoro-2-methylimidazo[1,2-a]pyridine-6-yl)-7-(3-methylpiperazin-1-yl)-4H-pyrido[1,2-a][1,3,5]triazin-4-one] |  |  | 71.8 | 96.6 | 19.8 | 39.9 | 33.4 | 64.6 | Some of the constructs show higher fold induction of luciferase in the presence of 116B compared to vehicle than RS3-1 | higher fold induction of luciferase with higher concentrations of 116B | increasing fold-induction of luciferase with increasing concentrations

From patent publication US20260327655A1, “SMALL-MOLECULE REGULATED ALTERNATIVE SPLICING” (priority 2023, published 2026)
